The target of this test is T1, human sGC α subunit and β subunit (Homo sapiens, UniProt Q02153).
T1 construct: expressed in transfected cells
T1 sequence (Q02153 1-619): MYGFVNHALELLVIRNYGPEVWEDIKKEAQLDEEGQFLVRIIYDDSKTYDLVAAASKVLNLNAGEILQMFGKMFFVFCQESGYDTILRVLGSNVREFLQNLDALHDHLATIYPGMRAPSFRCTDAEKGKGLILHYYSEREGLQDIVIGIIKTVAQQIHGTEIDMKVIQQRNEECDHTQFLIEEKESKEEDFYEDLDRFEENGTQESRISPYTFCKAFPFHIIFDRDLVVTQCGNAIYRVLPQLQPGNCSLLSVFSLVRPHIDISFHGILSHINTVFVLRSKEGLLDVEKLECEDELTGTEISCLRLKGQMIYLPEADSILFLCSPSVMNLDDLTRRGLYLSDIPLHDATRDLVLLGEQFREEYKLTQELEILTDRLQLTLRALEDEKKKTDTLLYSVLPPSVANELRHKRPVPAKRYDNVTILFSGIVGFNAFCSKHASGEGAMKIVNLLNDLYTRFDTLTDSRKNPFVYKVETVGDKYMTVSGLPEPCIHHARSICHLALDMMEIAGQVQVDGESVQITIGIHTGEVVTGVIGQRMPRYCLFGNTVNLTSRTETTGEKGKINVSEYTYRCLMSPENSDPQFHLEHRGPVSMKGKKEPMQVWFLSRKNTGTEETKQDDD
T1 sequence (Q02108 1-690 partner): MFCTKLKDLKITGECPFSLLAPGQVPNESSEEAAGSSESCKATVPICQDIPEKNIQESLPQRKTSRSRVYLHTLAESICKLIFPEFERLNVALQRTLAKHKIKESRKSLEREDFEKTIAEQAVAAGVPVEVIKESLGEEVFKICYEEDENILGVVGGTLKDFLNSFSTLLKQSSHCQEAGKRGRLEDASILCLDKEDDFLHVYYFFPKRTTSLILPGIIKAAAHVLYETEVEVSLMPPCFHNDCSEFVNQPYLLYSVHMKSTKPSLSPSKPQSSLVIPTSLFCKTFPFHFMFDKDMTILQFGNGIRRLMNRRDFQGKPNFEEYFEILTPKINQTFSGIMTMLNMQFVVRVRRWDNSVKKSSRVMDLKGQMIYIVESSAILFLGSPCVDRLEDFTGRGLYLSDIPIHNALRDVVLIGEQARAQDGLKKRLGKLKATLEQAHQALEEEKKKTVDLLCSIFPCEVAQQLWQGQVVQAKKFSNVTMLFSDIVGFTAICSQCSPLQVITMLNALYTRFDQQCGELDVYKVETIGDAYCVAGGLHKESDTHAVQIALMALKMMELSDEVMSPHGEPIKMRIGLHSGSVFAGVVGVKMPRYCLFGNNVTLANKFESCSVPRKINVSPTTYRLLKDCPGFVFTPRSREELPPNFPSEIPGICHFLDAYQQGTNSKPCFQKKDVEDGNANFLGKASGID
In words: Heme-independent property of sGC activating function (EC50 ratio, CHO-K1 cells expressing human sGC and mouse CNGA2). Format: cell-based. To be noted: EC50 in the absence of ODQ divided by EC50 in the presence of ODQ, sGC activation. How it is done:
For the assay, Chinese hamster ovary cells (CHO-K1 cells) in which human sGC α subunit and β subunit and mouse cyclic nucleotide gated channel (CNGA2) are stably expressed were used.
CHO-K1 cells in which human sGC and mouse CNGA2 are stably expressed were cultured at 37° C. in F-12 medium containing 10% (v/v) fetal bovine serum (FBS), penicillin (100 U/mL), streptomycin (100 μg/mL), G418 (250 μg/mL), and zeocin (250 μg/mL). The cells were suspended in the culture medium and seeded onto a 96-well plate, and then cultured at 37° C. for 24 hours. After washing with assay buffer 1 (140 mmol/L sodium chloride, 5 mmol/L potassium chloride, 0.5 mmol/L magnesium chloride, 0.01 mmol/L calcium chloride, 10 mmol/L glucose, 0.4 mmol/L magnesium sulfate, 10 mmol/L 4-(2-hydroxyethyl)piperazin-1-ylethane sulfonic acid, and 125 μmol/L sulfinpyrazone, pH 7.4), an indicator solution in which FURA2-AM as a fluorescent Ca^2+ indicator is dissolved at concentration of 5 μmol/L in assay buffer 1 was added followed by culture for 60 minutes at 37° C. The indicator solution was removed. After washing with assay buffer 1, the test compound solution was added and incubated for 10 minutes at room temperature. The plate was placed in a fluorometer (Flex Station II, Molecular Devices, LLC), and then the intracellular calcium concentration was measured as fluorescence intensity ratio which is obtained from each excitation wavelength (excitation wavelength of 340 nm and 380 nm and detection wavelength of 510 nm).
The test compound solution was prepared by dissolving each of the test compounds in DMSO to a concentration of 10 mmol/L, and then adding the assay buffer 2 (140 mmol/L sodium chloride, 5 mmol/L potassium chloride, 0.5 mmol/L magnesium chloride, 1 mmol/L calcium chloride, 10 mmol/L glucose, 0.4 mmol/L magnesium sulfate, 10 mmol/L 4-(2-hydroxyethyl)piperazin-1-ylethane sulfonic acid, 125 μmol/L sulfinpyrazone, 100 μmol/L isobutylmethylxanthine, 10 μmol/L 1H-[1,2,4]-oxadiazole[4,3-a]quinoxalin-1-one (hereinbelow, ODQ), pH 7.4) for dilution to have test concentration of 10 μmol/L. For the evaluation of a case in which ODQ is not contained, the same evaluation was performed except that ODQ is excluded from assay buffer 2. As a control solution, a DMSO solution was used instead of the test compound solution.
The activity of the test compound corresponds to the increase ratio (%) of the sGC activity at the time of adding the test compound solution with respect to the sGC activity at the time of adding the control solution, and it was calculated by dividing the fluorescence intensity ratio at the time of adding the test compound by the fluorescence intensity ratio of the control solution and subtracting the sGC activity (100%) at the time of adding the control solution.
For the representative compounds, activity was measured in the same manner as Test Example 1 at each test concentration of 0.0001, 0.001, 0.003, 0.01, 0.03, 0.1, 1, and 10 μmol/L.
The degree of heme-independent property of each test compound with regard to sGC activating function was obtained by dividing, for EC50 measured from the concentration-activation curve which has been established from the above, EC50 in the absence of ODQ by EC50 in the presence of ODQ. Specifically, the smaller the EC50 ratio is, the less the change in sGC activating function is, the change in the function being caused by the presence or absence of ODQ, and thus it is found to be more heme-independent.
EC50 value was obtained by measuring the activity of each compound to be tested at concentrations of 0.0001, 0.001, 0.003, 0.01, 0.03, 0.1, 1, and 10 μmol/L and performing the calculation using four-parameter logistics model using Assay Explorer (Accelrys).
With `O=C(O)CCCCN(CCc1ccccc1OCc1ccc(CCc2ccccc2)cc1)Cc1ccc(C(=O)O)cc1` [Cinaciguat, reference compound], the “EC50 Ratio (ODQ−/ODQ+)” value amounted to 3.08. The same measure for `O=C(O)CCCCN(CCc1ccccc1OCc1ccc(SCc2ccccc2)cc1)C1CCCc2cc(C(=O)O)ccc21` (stereo not drawn) [Example 15, 5-{N-[2-[2-(4-Benzylsulfanylbenzyloxyl)phenyl]ethyl]-N-(4-carboxybutyl)amino}-5,6,7,8-tetrahydronaphthalene-2-carboxylic acid]: 1.40. The same measure for `O=C(O)CCCCN(CCc1ccccc1OCc1cccc2c1CCCC2)C1CCCc2cc(C(=O)O)ccc21` (stereo not drawn) [Example 29, 5-{N-(4-Carboxybutyl)-N-[2-[2-(5,6,7,8-tetrahydronaphthalene-1-ylmethoxy)phenyl]ethyl]amino}-5,6,7,8-tetrahydronaphthalene-2-carboxylic acid]: 1.71.
